Data taken from patent US20220110320A1, “ANTIMICROBIAL THIOURONIUM COPOLYMERS AND METHODS OF MAKING AND USING THE SAME” (priority 2020, published 2022).

Assay: 1H-NMR stability (hydrolysis) of VBT monomer
Assay type: physicochemical
Conditions: 3 weeks
Procedure: ^1H-NMR Studies. The VBT monomer (5 mg/mL) stability in D2O (with 0.5 μL DMSO as standard) and 0.5 M sodium acetate was analyzed using ^1H-NMR (Avance-600 MHz, Bruker). The VBT peak position and integration were monitored vs. time.
The monomer was recrystallized before use to remove any deprotected thiols. The PVBT polymer was prepared using radical polymerization in TFE and was characterized using NMR spectroscopy. Because the thiouronium group is usually employed as a precursor to thiols, via base-induced hydrolysis, the stability of the VBT monomer under neutral and mildly basic conditions was assessed by recording ^1H-NMR spectra of VBT in D20 and in 0.5 M NaAc (pH≈9.2) for 3 weeks. […] In fact, hydrolysis is typically carried out at much higher pH.

Compound: C=Cc1ccc(CSC(=N)N)cc1.Cl [VBT]
- Hydrolysis of monomer by 1H-NMR (in 0.5 M NaAc (pH≈9.2)): no signs of hydrolysis
- Hydrolysis of monomer by 1H-NMR (in D2O): no signs of hydrolysis
